Assay results from patent US20240059700A1, “NOVEL DIACYLGLYCERIDE O-ACYLTRANSFERASE 2 INHIBITORS” (Merck Sharp & Dohme LLC, priority 2020, published 2024).

Target: human DGAT2 (hDGAT2) (Homo sapiens (Human), UniProt Q96PD7)
Test: DGAT2 Enzymatic Activity Assay
Type: biochemical
Details: membrane prep of Sf-9 insect cells expressing hDGAT2; 13C18-triolein product by LC/MS/MS
Experimental: Sf-9 insect cells were maintained in Grace's insect cell culture medium with 10% heated-inactivated fetal bovine serum, 1% Pluronic F-68 and 0.14 μg/ml Kanamycine sulfate at 27° C. in a shaker incubator. After infection with untagged baculovirus expressing human DGAT2 (hDGAT2) at multiplicity of infection (MOI) 3 for 48 hours, cells were harvested. Cell pellets were suspended in buffer containing 10 mM Tris-HCl pH 7.5, 1 mM EDTA, 250 mM sucrose and Complete Protease Inhibitor Cocktail (Sigma Aldrich), and sonicated on ice. Cell debris were removed by centrifugation at 2000×g for 15 minutes. Membrane fractions were isolated by ultracentrifugation (100,000×g), resuspended in the same buffer, and frozen (−80° C.) for later use. The protein concentration was determined with the Pierce™ BCA Protein Assay Kit (Thermo Fisher Scientific). Expression of protein levels was analyzed by immunoblotting with rabbit anti-DGAT2 antibody (Abcam, ab102831) and donkey anti-rabbit IgG H&L Alexa Fluor® 647 (Abcam, ab150075) followed by detection using Typhoon FLA9000 (GE Healthcare).
LC/MS/MS analyses were performed using Thermal Fisher's LX4-TSQ Vantage system. This system consists of an Agilent binary high-performance liquid chromatography (HPLC) pumps and a TSQ Vantage triple quadrupole MS/MS instrument. For each sample, 2 μL samples from the top organic layer of in-plate liquid-liquid extraction were injected onto a Thermo Betabasic C4 column (2.1 mm×20 mm, 5 μm particle size). The samples were then eluted using the following conditions; mobile phase: Isopropanol: acetonitrile/10 mM ammonium formate=50/35/15 (v/v/v), flow rate: 0.8 mL/min, temperature: 25° C. Data was acquired in positive mode using a heated electrospray ionization (HESI) interface. The operational parameters for the TSQ Vantage MS/MS instrument were a spray voltage of 3000 V, capillary temperature of 280° C., vaporizer temperature 400° C., sheath gas 45 arbitrary unit, Aux gas 10 arbitrary units, S-lens 165 and collision gas 1.0 mTorr. […] (SRM) chromatograms of ^13C18-triolein (Q1: 920.8>Q3:621.3) and internal standard ^13C21-triolein (Q1: 923.8>Q3:617.3) were collected for 33 sec. The peak area was integrated by Xcalibur Quan software. The ratio between the ^13C18 triolein generated in the reaction and spiked in internal standard ^13C21-triolein was used to generate percentage inhibition and IC50 values. Compound percentage inhibition was calculated by the following formula: Inhibition %=1−[(compound response−low control)/(high control−low control)]×100%. Potent compounds were titrated and IC50 were calculated by 4 parameter sigmoidal curve fitting formula.
DGAT2 activity was determined by measuring the amount of enzymatic product ^13C18-triolein (^13C-1,2,3-Tri(cis-9-octadecenoyl)glycerol) using the membrane prep mentioned above. The assay was carried out in ABgene 384-well assay plates in a final volume of 25 μL at rt. The assay mixture contained the following: assay buffer (100 mM Tris·Cl, pH 7.0, 20 mM MgCl2, 5% ethanol), 25 μM of diolein, 5 μM of ^13C oleoyl-CoA and 8 ng/μL of DGAT2 membrane.

Sequence of human DGAT2 (hDGAT2) (Q96PD7 whole entry): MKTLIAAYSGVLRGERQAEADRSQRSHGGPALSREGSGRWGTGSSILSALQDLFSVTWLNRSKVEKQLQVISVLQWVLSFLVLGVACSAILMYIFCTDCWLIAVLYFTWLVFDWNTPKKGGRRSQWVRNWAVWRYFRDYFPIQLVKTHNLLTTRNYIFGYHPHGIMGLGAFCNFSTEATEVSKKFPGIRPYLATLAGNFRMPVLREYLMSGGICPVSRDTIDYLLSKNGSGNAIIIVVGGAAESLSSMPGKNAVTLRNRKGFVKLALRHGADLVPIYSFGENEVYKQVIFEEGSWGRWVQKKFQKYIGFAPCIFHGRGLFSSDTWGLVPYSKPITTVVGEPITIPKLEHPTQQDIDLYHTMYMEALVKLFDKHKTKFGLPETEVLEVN

CC(C)n1nc(-c2cncc(OC(F)(F)F)c2)c2ncc(C(=O)NC3(C)CS(=O)(=O)C3)cc21 [Example 114, 1-isopropyl-N-(3-methyl-1,1-dioxidothietan-3-yl)-3-(5-(trifluoromethoxy)pyridin-3-yl)-1H-pyrazolo[4,3-b]pyridine-6-carboxamide]
IC50: 20 nM

CC1(NC(=O)c2cnc3c(-c4cccc(OC(F)F)c4)nn(C4CC(O)C4)c3c2)CS(=O)(=O)C1 (stereo not drawn) [Example 88, 3-(3-(difluoromethoxy)phenyl)-1-(3-hydroxycyclobutyl)-N-(3-methyl-1,1-dioxidothietan-3-yl)-1H-pyrazolo[4,3-b]pyridine-6-carboxamide]
IC50: 80 nM

C[C@]1(NC(=O)c2cnc3c(-c4cccc(OC(F)F)c4)nn(-c4ncc(F)cn4)c3c2)CCS(=O)(=O)C1 [Example 3, (S)-3-(3-(difluoromethoxy)phenyl)-1-(5-fluoropyrimidin-2-yl)-N-(3-methyl-1,1-dioxidotetrahydrothiophen-3-yl)-1H-pyrazolo[4,3-b]pyridine-6-carboxamide]
IC50: 57 nM

C[C@]1(NC(=O)c2cc3c(cn2)c(-c2cncc(OC(F)F)c2)nn3C2CCOCC2)CCS(=O)(=O)C1 [Example 79, (S)-3-(5-(difluoromethoxy)pyridin-3-yl)-N-(3-methyl-1,1-dioxidotetrahydrothiophen-3-yl)-1-(tetrahydro-2H-pyran-4-yl)-1H-pyrazolo[4,3-c]pyridine-6-carboxamide]
IC50: 10000 nM

CC(C)n1nc(-c2cncc(OC(F)F)c2)c2ncc(C(=O)N[C@H]3CCC[C@H]3O)cc21 [Example 105, 3-(5-(difluoromethoxy)pyridin-3-yl)-N-((1S,2R)-2-hydroxycyclopentyl)-1-isopropyl-1H-pyrazolo[4,3-b]pyridine-6-carboxamide]
IC50: 78 nM

CC(C)n1nc(-c2cccc(F)c2)c2ncc(C(=O)NC3(C)CS(=O)(=O)C3)cc21 [Example 104, 3-(3-fluorophenyl)-1-isopropyl-N-(3-methyl-1,1-dioxo-thietan-3-yl)pyrazolo[4,3-b]pyridine-6-carboxamide]
IC50: 119 nM

CC1(C)CC(n2nc(-c3cccc(OC(F)F)c3)c3ncc(C(=O)NC4(C)CS(=O)(=O)C4)cc32)C1 [Example 89, 3-(3-(difluoromethoxy)phenyl)-1-(3,3-dimethylcyclobutyl)-N-(3-methyl-1,1-dioxidothietan-3-yl)-1H-pyrazolo[4,3-b]pyridine-6-carboxamide]
IC50: 2.9 nM

CCn1nc(-c2cccc(OC(F)F)c2)c2ncc(C(=O)NC3(C)CS(=O)(=O)C3)cc21 [Example 27, 3-(3-(difluoromethoxy)phenyl)-1-ethyl-N-(3-methyl-1,1-dioxidothietan-3-yl)-1H-pyrazolo[4,3-b]pyridine-6-carboxamide]
IC50: 111 nM

CC(C)n1nc(-c2cccc(OC(F)F)c2)c2c(C#N)cc(C(=O)NC3(C)CS(=O)(=O)C3)cc21 [Example 91, 4-cyano-3-(3-(difluoromethoxy)phenyl)-1-isopropyl-N-(3-methyl-1,1-dioxidothietan-3-yl)-1H-indazole-6-carboxamide]
IC50: 2 nM

CC(C)n1nc(-c2cccc(C3(C#N)CC3)c2)c2ncc(C(=O)NC3(C)CS(=O)(=O)C3)cc21 [Example 110, 3-(3-(1-cyanocyclopropyl)phenyl)-1-isopropyl-N-(3-methyl-1,1-dioxidothietan-3-yl)-1H-pyrazolo[4,3-b]pyridine-6-carboxamide]
IC50: 1930 nM

CC(C)n1nc(-c2cc(OC(F)F)ncc2F)c2nnc(C(=O)NC3(C)CCS(=O)(=O)CC3)cc21 [Example 85, 3-(2-(difluoromethoxy)-5-fluoropyridin-4-yl)-1-isopropyl-N-(4-methyl-1,1-dioxidotetrahydro-2H-thiopyran-4-yl)-1H-pyrazolo[4,3-c]pyridazine-6-carboxamide]
IC50: 143 nM

CN(C)[C@H]1COC[C@@H]1NC(=O)c1cnc2c(-c3cccc(OC(F)F)c3)cn(-c3ncc(F)cn3)c2c1 [Example 8, 3-(3-(difluoromethoxy)phenyl)-N-((3R,4R)-4-(dimethylamino)tetrahydrofuran-3-yl)-1-(5-fluoropyrimidin-2-yl)-1H-pyrrolo[3,2-b]pyridine-6-carboxamide]
IC50: 119 nM

CCN1CCN(C(=O)c2cnc3c(-c4cncc(OC(F)F)c4)nn(C(C)C)c3c2)CC1 [Example 58, (3-(5-(difluoromethoxy)pyridin-3-yl)-1-isopropyl-1H-pyrazolo[4,3-b]pyridin-6-yl)(4-ethylpiperazin-1-yl)methanone]
IC50: > 1000 nM

CC(C)n1nc(-c2cccc(OC(F)F)c2)c2ncc(C(=O)NC3(C(C)(C)O)CCOCC3)cc21 [Example 72, 3-(3-(difluoromethoxy)phenyl)-N-(4-(2-hydroxypropan-2-yl)tetrahydro-2H-pyran-4-yl)-1-isopropyl-1H-pyrazolo[4,3-b]pyridine-6-carboxamide]
IC50: 638 nM

Cn1nccc1-c1cn(-c2ccc(F)cc2)c2cc(C(=O)N[C@@]3(C)CCS(=O)(=O)C3)cnc12 [Example 13, (S)-1-(4-fluorophenyl)-N-(3-methyl-1,1-dioxidotetrahydrothiophen-3-yl)-3-(1-methyl-1H-pyrazol-5-yl)-1H-pyrrolo[3,2-b]pyridine-6-carboxamide]
IC50: 89 nM

CC(=O)Nc1ccc(-c2nn(C(C)C)c3cc(C(=O)NC4(C)CS(=O)(=O)C4)cnc23)cc1O [Example 124, 3-(4-acetamido-3-hydroxyphenyl)-1-isopropyl-N-(3-methyl-1,1-dioxidothietan-3-yl)-1H-pyrazolo[4,3-b]pyridine-6-carboxamide]
IC50: 620 nM

Cn1nccc1-c1cn(C2CCOCC2)c2cc(C(=O)N[C@@]3(C)CCS(=O)(=O)C3)c(F)cc12 [Example 83]
IC50: 5430 nM

Cn1nccc1-c1nn(-c2ccc(F)cc2)c2cc(C(=O)N[C@@]3(C)CCS(=O)(=O)C3)cnc12 [Example 2, (S)-1-(4-fluorophenyl)-N-(3-methyl-1,1-dioxidotetrahydrothiophen-3-yl)-3-(1-methyl-1H-pyrazol-5-yl)-1H-pyrazolo[4,3-b]pyridine-6-carboxamide]
IC50: 142 nM

CC(C)n1nc(-c2cccc(OC(F)F)c2)c2ncc(C(=O)NC3(C(C)O)CCOC3)cc21 (single isomer, unassigned) [Example 50d, 3-(3-(difluoromethoxy)phenyl)-N-(3-(1-hydroxyethyl)tetrahydrofuran-3-yl)-1-isopropyl-1H-pyrazolo[4,3-b]pyridine-6-carboxamide]
IC50: 150 nM

Cn1nc(-c2cccc(OC(F)F)c2)c2ncc(C(=O)NC3(C)CS(=O)(=O)C3)cc21 [Example 26, 3-(3-(difluoromethoxy)phenyl)-1-methyl-N-(3-methyl-1,1-dioxidothietan-3-yl)-1H-pyrazolo[4,3-b]pyridine-6-carboxamide]
IC50: 153 nM

CC(C)n1nc(-c2cccc(OC(F)F)c2)c2ncc(C(=O)N[C@H]3CCCC[C@@H]3O)cc21 [Example 40, 3-[3-(difluoromethoxy)phenyl]-N-[(1S,2S)-2-hydroxycyclohexyl]-1-isopropyl-pyrazolo[4,3-b]pyridine-6-carboxamide]
IC50: 17 nM

CCOc1cc(-c2nn(C(C)C)c3cc(C(=O)N[C@@]4(C)CCC[C@H]4O)cnc23)c(F)cn1 [Example 57, 3-(2-ethoxy-5-fluoropyridin-4-yl)-N-((1S,2R)-2-hydroxy-1-methylcyclopentyl)-1-isopropyl-1H-pyrazolo[4,3-b]pyridine-6-carboxamide]
IC50: 15 nM

CC(C)n1nc(-c2ccnc(N(C)C)c2)c2ncc(C(=O)NC3(C)CS(=O)(=O)C3)cc21 [Example 125, 3-(2-(dimethylamino)pyridin-4-yl)-1-isopropyl-N-(3-methyl-1,1-dioxidothietan-3-yl)-1H-pyrazolo[4,3-b]pyridine-6-carboxamide]
IC50: > 1000 nM

C[C@]1(NC(=O)c2cc3c(cn2)c(-c2cccc(OC(F)F)c2)cn3-c2ccc(F)cc2)CCS(=O)(=O)C1 [Example 15, (S)-3-(3-(difluoromethoxy)phenyl)-1-(4-fluorophenyl)-N-(3-methyl-1,1-dioxidotetrahydrothiophen-3-yl)-1H-pyrrolo[3,2-c]pyridine-6-carboxamide]
IC50: 23 nM
